From patent publication US20070098777A1, “Pharmaceutical or Food Composition for Treatment or Prevention of Brain Edema” (AJINOMOTO CO., INC., priority 2000, published 2007)

How the values were obtained:
[1] = test system: astrocytes; experiment: Injury of incubated astrocytes by 3-NPA, neutron red assay; format: cell-based, rat; conditions: average ± SE, after 3 days
Protocol: (§1) Isolation and incubation of astrocytes were conducted according to the method as described in Neuroscience, 87: […], 1998. Thus, cerebral cortex of a fetal rat was removed, from which astrocytes were separated with trypsin treatment at 37° C. for 20 minutes and incubated on a 24 well culture dish containing DMEM media+10% FBS under 5% CO2/air atmosphere at 37° C.
(§2) The injury of incubated astrocytes was induced by replacing the medium with a serum-free DMEM medium (serum-free group) or adding 6 mM of a metabolic inhibitor, 3-nitropropionic acid (3-NPA), to the medium (3-NPA group). The serum-free group and the 3-NPA group were divided into two sub-groups, respectively. To one sub-group of each group, 10 μg/ml of melatonin was added to the medium.
(§3) The number of the alive astrocytes was counted according to the neutron red assay after 3 days from the incubation in the 3-NPA group or according to the MTT (3-(4,5-dimethyl-thiozolyl)-2,5-diphenyl-tetrazolium bromide) assay after 10 days from the replacement of the medium. The test of significance was conducted by ANOVA.

[2] = test system: astrocytes; experiment: Injury of incubated astrocytes by serum-free medium, MTT assay; format: cell-based, rat; conditions: average ± SE, serum-free DMEM + 10 μg/ml melatonin, after 10 days
Protocol: as §1, §2, §3

[3] = test system: acute pancreatitis (pancreatic edema) induced by cerulein; conditions: rats; cited from earlier work
[4] = test system: CA1 hippocampal neurons; conditions: intraperitoneally, especially prior to cerebral ischemia or during recanalization; cited from earlier work
[5] = test system: blood-brain barrier; experiment: IgG diapedesis area from blood vessel after brain ischemia (anti-IgG staining, NIH imaging); format: in vivo, rat; conditions: average ± SE; 6 mg/kg melatonin into stomach for 10 days from 24 hours after recanalization; 11 rats
From the text: Eight to ten-week-old Wister male rats having the body weight of 250 to 300 g were used. Under halothane anesthesia, a 24 G plug was inserted from a right external carotid artery of each rat so as to arrive to an origin of its middle cerebral artery of Willis's circle through its internal carotid artery. Immediately the anesthesia was stopped and the rat was dehypnotized. After one hour, the plug was taken out under halothane anesthesia, thereby a blood flow was recanalized. Ischemic rats in Example 1 were divided into two groups. In the first group (non-melatonin administration group), a physiological saline solution was injected to a stomach of each rat using a sound for 10 days from the first day (24 hours after the recanalization of the blood flow). In the second group (melatonin administration group), a melatonin-containing physiological saline solution was similarly administered in an amount of 6 mg of melatonin per kg of rat.

[6] = test system: astroglia; experiment: GFAP staining of brain specimens after brain ischemia (middle cerebral artery plug, 1 h, recanalization); format: in vivo, rat; conditions: 11 days after onset of ischemia, 6 mg/kg melatonin for 10 days, versus non-melatonin group
From the text: Eight to ten-week-old Wister male rats having the body weight of 250 to 300 g were used.
Under halothane anesthesia, a 24 G plug was inserted from a right external carotid artery of each rat so as to arrive to an origin of its middle cerebral artery of Willis's circle through its internal carotid artery. Immediately the anesthesia was stopped and the rat was dehypnotized. After one hour, the plug was taken out under halothane anesthesia, thereby a blood flow was recanalized.
After 11 days from an onset of brain ischemia, the brain of each rat was fixed with an aqueous 4% paraformaldehyde solution to prepare a brain specimen. Then, the brain specimen was stained according to the standard ABC method using an anti-GFAP antibody (GFAP staining; astroglia were stained)
Ischemic rats in Example 1 were divided into two groups. In the first group (non-melatonin administration group), a physiological saline solution was injected to a stomach of each rat using a sound for 10 days from the first day (24 hours after the recanalization of the blood flow). In the second group (melatonin administration group), a melatonin-containing physiological saline solution was similarly administered in an amount of 6 mg of melatonin per kg of rat. […]

[7] = test system: carrageenan-induced inflammatory paw swelling; conditions: rats; cited from earlier work
[8] = test system: ischemic or histamine-induced paw edema; conditions: various antioxidants including melatonin, together with dexamethasone; cited from earlier work
[9] = test system: production of NO in brain; conditions: after transient ischemia/recirculation; cited from earlier work
[10] = test system: neurons; experiment: MAP-2 staining of brain specimens after brain ischemia; format: in vivo, rat; conditions: 6 mg/kg melatonin for 10 days, versus non-melatonin group
[11] = test system: cheek pouch of a hamster; conditions: cited from earlier work

With `O=C(O)CC[N+](=O)[O-]` [3-NPA, 3-nitropropionic acid] the number of astrocytes ([1]; 6 mM 3-NPA alone) was 50 ± 5 % of control.

In the case of `COc1ccc2[nH]cc(CCNC(C)=O)c2c1` [melatonin, N-[2-(5-methoxy-1H-indol-3-yl)ethyl]acetamide], the number of astrocytes [2] is listed as 48 ± 4 % of control, the “acute pancreatitis (pancreatic edema) induced by cerulein” value [3] is listed as “reduces an acute pancreatitis” and the number of astrocytes ([1]; 6 mM 3-NPA + 10 μg/ml melatonin, neutral red assay) is listed as 63 ± 4 % of control. For the same compound, the “protection of CA1 hippocampal neurons from ischemic injury” value [4] was “protects”, the “IgG diapedesis area, cerebral cortex” value [5] was 5.5 ± 4.5 mm^2 and the “IgG diapedesis area, corpus striatum” value [5] was 7.2 ± 4.0 mm^2. The “falling out of astroglia in ischemic core area and gliosis in penumbra area” value [6] was “reduced”, the “carrageenan-induced inflammatory paw swelling” value [7] was “suppresses” and the “suppression by dexamethasone of ischemic or histamine-induced paw edema” value [8] was “enhance or prolong”. The “production of NO in brain” value [9] was “inhibits”, the “number of the alive neurons” value [10] was “higher” and the “edema caused by ischemia-reperfusion of microcirculation” value ([11]; hamster cheek pouch) was “reduces edema”. The “increase of permeability of capillaries caused by free radicals” value ([11]; topical exposure to hypoxanthine-xanthine oxidase) was “reduces the increase of permeability”.
